Assay results reported in EP1579851A2, “Rapid release encapsulated bioactive agents for inducing or potentiating an immune response and methods of use thereof” (CORIXA CORPORATION, priority 1997, dated 1999).

Test system: P815 cells
Assay: In vivo CTL induction by P815-1 formulations (anti-P1A response), 51Cr release cytotoxicity assay
Design: species or system DBA/2 mice
Settings: 30 µg peptide or equivalent, two weeks after a single immunization; restimulated with P815-2 pulsed splenocytes; Fig. 4a
Description: C57BL/6 mice were immunized subcutaneously with 15-30µg of soluble Ova or Ova encapsulated in microspheres (Ova/PLG). In the P1A system, DBA/2 mice were similarly immunized with P815-1 peptide alone or P815-1/PLG. PLG is defined herein as PLG1, which represents the polymeric composition of the single component system, or PLG2a-XX, which represents the polymeric composition of the blend component system. Antigens were suspended in 200 iL of PBS and injected on both flanks of the animal. As controls, mice were immunized with Ova admixed with alum as adjuvant. Fourteen to 21 days after the immunization, splenocytes were prepared as single cell suspensions and ~50'10^6 cells from each mouse were incubated with 2.5'10^6 irradiated (200,000 rad) EG7.Ova cells. […] After five days of culture, CTL activities were measured in a ^51Cr release cytotoxicity assay as described below.
To conduct a CTL assay, target cells were incubated with ^51Cr at 100 ìCi/10^6 cells at 37°C for 60 min. […] After 4 hours of incubation at 37°C, supernatant was collected from test wells using Skatron filter strips and counted on a Packard Cobra II a counter. Specific lysis was calculated as: % specific lysis =(Experimental release - Spontaneous release)/(Maximum release - Spontaneous release)X 100 [formula] […]

KKKRYSLEEILPYLGWLVFAWTTSKKK [soluble P815-1 peptide, 28 amino acid peptide, residues 28-49 of the P1A antigen with 3 lysine residues added to both termini]
CTL activity of splenocytes against P815 cells: Minimal CTL priming
